Assays:
CRBN/DDB1 = CRBN/DDB1 (Homo sapiens, UniProt Q96SW2); assay: HTRF binding assay (displacement of Cy5-thalidomide probe from CRBN/DDB1); settings: CRBN/DDB1 2.5 nM, Cy5-Thalidomide 100 nM, 30 min; geometric mean; read-out: HTRF_Thali_Disp_DR_geo_IC50
Summary of the method: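 HTRF displacement of Cy5-thalidomide (100 nM) from His-tagged CRBN/DDB1 (2.5 nM) with anti-His Tb cryptate in 20 mM HEPES, 20 mM NaCl, 0.2 mM TCEP, 0.2 mM EDTA, 0.005% Tween20. 10-point 1:3 series, 30 min ambient. 665/620 nm ratio fitted 4-parameter for IC50; Ki by Cheng-Prusoff from geometric-mean IC50.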

LS180 cell line = assay: Growth inhibition, CyQUANT Direct Cell Proliferation Assay, LS180; assay type: cell-based; settings: Homo sapiens; LS180, 120 to 168 hours; read-out: LS180 GI50
Summary of the method: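 Cells seeded 300 to 1,800 per well, day-0 CyQUANT Direct read after overnight attachment; 9-point 3-fold dilutions from 30 μM top concentration, 120 to 168 h exposure, 0.3% DMSO control. Fluorescence Ex/Em 480/520 nm; growth inhibition normalised to day-0 and untreated day-N signals, GI50 at 50% of untreated control.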

Chain of CRBN/DDB1 (Q96SW2 whole entry, species assumed): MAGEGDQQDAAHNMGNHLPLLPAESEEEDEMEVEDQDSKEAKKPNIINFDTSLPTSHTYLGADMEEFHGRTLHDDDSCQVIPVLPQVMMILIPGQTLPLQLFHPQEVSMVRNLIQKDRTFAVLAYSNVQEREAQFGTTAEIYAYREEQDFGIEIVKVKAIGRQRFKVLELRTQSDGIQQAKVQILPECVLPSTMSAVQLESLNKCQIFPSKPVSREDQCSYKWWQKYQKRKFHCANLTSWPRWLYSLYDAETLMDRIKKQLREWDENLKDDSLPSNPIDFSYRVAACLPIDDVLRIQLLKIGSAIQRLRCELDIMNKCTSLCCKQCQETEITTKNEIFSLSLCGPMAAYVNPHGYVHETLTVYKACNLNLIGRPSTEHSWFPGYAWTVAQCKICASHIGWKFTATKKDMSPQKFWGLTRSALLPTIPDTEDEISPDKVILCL
Chain of CRBN/DDB1 (Q16531 whole entry partner, species assumed): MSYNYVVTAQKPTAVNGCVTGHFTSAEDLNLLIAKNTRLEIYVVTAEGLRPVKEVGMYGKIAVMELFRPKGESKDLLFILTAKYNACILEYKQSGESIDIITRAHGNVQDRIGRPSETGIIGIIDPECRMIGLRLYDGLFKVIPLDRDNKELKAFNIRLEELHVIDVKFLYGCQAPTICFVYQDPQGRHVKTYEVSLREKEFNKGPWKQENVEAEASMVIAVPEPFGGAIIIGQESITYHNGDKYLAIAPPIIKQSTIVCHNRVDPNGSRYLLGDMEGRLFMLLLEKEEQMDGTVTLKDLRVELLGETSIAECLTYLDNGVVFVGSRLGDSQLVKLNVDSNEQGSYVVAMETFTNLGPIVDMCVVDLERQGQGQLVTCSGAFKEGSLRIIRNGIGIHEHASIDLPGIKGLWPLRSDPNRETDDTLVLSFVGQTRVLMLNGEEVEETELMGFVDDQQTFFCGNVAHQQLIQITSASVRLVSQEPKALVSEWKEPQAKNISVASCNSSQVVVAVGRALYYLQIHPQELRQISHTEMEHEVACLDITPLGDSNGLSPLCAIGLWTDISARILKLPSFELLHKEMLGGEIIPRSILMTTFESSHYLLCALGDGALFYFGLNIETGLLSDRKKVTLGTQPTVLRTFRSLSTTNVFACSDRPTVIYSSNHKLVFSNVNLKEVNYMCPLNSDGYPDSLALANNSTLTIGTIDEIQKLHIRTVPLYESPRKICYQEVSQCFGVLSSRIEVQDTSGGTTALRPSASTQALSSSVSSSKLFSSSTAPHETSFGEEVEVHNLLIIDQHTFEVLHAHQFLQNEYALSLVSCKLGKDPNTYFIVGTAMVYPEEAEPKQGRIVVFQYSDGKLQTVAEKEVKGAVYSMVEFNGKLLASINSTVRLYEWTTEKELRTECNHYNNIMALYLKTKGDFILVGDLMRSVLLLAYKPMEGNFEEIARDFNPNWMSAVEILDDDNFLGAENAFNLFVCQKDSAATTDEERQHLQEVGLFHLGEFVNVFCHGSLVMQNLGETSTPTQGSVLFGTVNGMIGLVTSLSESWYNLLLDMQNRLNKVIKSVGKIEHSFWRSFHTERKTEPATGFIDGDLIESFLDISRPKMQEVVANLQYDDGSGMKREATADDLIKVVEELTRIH

## C[C@@H]1Cc2ccccc2N1C(=O)Nc1ccc2c(c1)CN(C1CCC(=O)NC1=O)C2=O (stereo partly drawn) [Compound 102, (2R)—N-(2-(2,6-dioxopiperidin-3-yl)-1-oxoisoindolin-5-yl)-2-methylindoline-1-carboxamide]
CRBN/DDB1
  IC50: 100 to 1000 nM
LS180 cell line
  GI50: 100 to 1000 nM

Reference: patent US20250171420A1 (Monte Rosa Therapeutics, Inc., priority 2022, published 2025)
